Assay results taken from patent US20260125371A1, “METHOD FOR INHIBITING CLOSTRIDIOIDES DIFFICILE SPORE GERMINATION” (UNIVERSITY OF NOTRE DAME DU LAC, priority 2022, published 2026).
Values after ≈ are worked out from the molar mass of the structure shown. Read-outs that look alike come from different tables or passages of the source.

Experiments:
S. aureus = assay: MIC against S. aureus strains; format: cell-based; settings: Staphylococcus aureus, S. aureus VRS1; read-out: MIC
[1] = test system: S. haemolyticus ATCC 29970; assay: MIC against S. haemolyticus; format: cell-based; settings: Staphylococcus haemolyticus, ATCC29970; S. haemolyticus ATCC 29970; read-out: MIC
E. faecium = assay: MIC against E. faecium strains; format: cell-based
K. pneumoniae ATCC700603 = assay: MIC against K. pneumoniae; format: cell-based; settings: Klebsiella pneumoniae; K. pneumoniae ATCC700603; read-out: MIC
A. baumanii ATCC17961 = assay: MIC against A. baumanii; format: cell-based; settings: Acinetobacter baumannii; A. baumanii ATCC17961; read-out: MIC
E. aerogenes ATCC35029 = assay: MIC against E. aerogenes; format: cell-based; settings: Klebsiella aerogenes; E. aerogenes ATCC35029; read-out: MIC
E. coli ATCC25922 = assay: MIC against E. coli; format: cell-based; settings: Escherichia coli; E. coli ATCC25922; read-out: MIC
C. difficile strains = settings: cited from earlier work
[2] = test system: Bacteroides fragilis HM-709; settings: cited from earlier work
[3] = test system: Bifidobacterium longum HM-846; settings: cited from earlier work
[4] = test system: Fusobacterium nucleatum HM-992; settings: cited from earlier work
Veillonella sp. HM-49 = settings: cited from earlier work
Eubacterium sp. HM-178 = settings: cited from earlier work
[5] = C. difficile strains of Table 4

CCc1c(Cl)c(O)c(Cl)c(O)c1C(=O)O[C@H]1[C@H](O)[C@H](OC)[C@H](OC/C2=C\C=C\C[C@H](O)/C(C)=C/[C@H](CC)[C@@H](O[C@@H]3OC(C)(C)[C@@H](OC(=O)C(C)C)[C@H](O)[C@@H]3O)/C(C)=C/C(C)=C/C[C@@H]([C@@H](C)O)OC2=O)O[C@@H]1C [FDX, fidaxomicin]
MIC (S. aureus): 64 µg/mL (≈ 60.5 µM)
MIC [1]: 16 µg/mL (≈ 15.1 µM)
MIC (E. faecium; E. faecium 106 (Van R)): >16 µg/mL
MIC (E. faecium; Enterococcus faecium, read-out: MIC): > 16 µg/mL
MIC (K. pneumoniae ATCC700603): > 128 µg/mL
MIC (A. baumanii ATCC17961): > 128 µg/mL
MIC (E. aerogenes ATCC35029): > 128 µg/mL
MIC (E. coli ATCC25922): > 128 µg/mL
IMIC50 (101 strains) (C. difficile strains; 101 C. difficile strains): 0.06 µg/mL
MIC90 (101 strains) (C. difficile strains; 101 C. difficile strains): 0.25 µg/mL (≈ 0.236 µM)
MIC (C. difficile strains; C. difficile 23828, resistant to FDX): >8 µg/mL
MIC (C. difficile strains; C. difficile 24531, resistant to VAN): 0.01 µg/mL (≈ 0.00945 µM)
MIC (C. difficile strains; C. difficile 26675, resistant to MTZ): 4 µg/mL (≈ 3.78 µM)
MIC (C. difficile strains; C. difficile BAA-1803): 1 µg/mL (≈ 0.945 µM)
MIC (C. difficile strains; C. difficile BAA-1870): 0.25 µg/mL (≈ 0.236 µM)
MIC (C. difficile strains; C. difficile NR49292): 0.5 µg/mL (≈ 0.473 µM)
MIC (C. difficile strains; C. difficile NR49294): 0.01 µg/mL (≈ 0.00945 µM)
MIC (C. difficile strains; C. difficile NR49302): 0.03 µg/mL (≈ 0.0284 µM)
MIC (C. difficile strains; C. difficile NR49305): 0.01 µg/mL (≈ 0.00945 µM)
MIC (C. difficile strains; C. difficile NR49310): ≤0.01 µg/mL
MIC (C. difficile strains; C. difficile NR49318): 0.125 µg/mL (≈ 0.118 µM)
MIC50 (C. difficile strains; [5]): 0.06 µg/mL (≈ 0.0567 µM)
MIC90 (C. difficile strains; [5]): 0.25 µg/mL (≈ 0.236 µM)
MIC (C. difficile strains; strain ATCC43598): 0.01 µg/mL (≈ 0.00945 µM)
MIC (C. difficile strains; strain BAA-1801): 0.125 µg/mL (≈ 0.118 µM)
MIC (C. difficile strains; strain BAA-1803): 1 µg/mL (≈ 0.945 µM)
MIC (C. difficile strains; strain BAA-1804): 0.125 µg/mL (≈ 0.118 µM)
MIC (C. difficile strains; strain BAA-1812): 0.015 µg/mL (≈ 0.0142 µM)
MIC (C. difficile strains; strain BAA-1814): 0.03 µg/mL (≈ 0.0284 µM)
MIC (C. difficile strains; strain BAA-1870): 0.25 µg/mL (≈ 0.236 µM)
MIC (C. difficile strains; strain HM-88): 0.03 µg/mL (≈ 0.0284 µM)
MIC (C. difficile strains; strain HM-89): 0.03 µg/mL (≈ 0.0284 µM)
MIC (C. difficile strains; strain HM-745): 0.125 µg/mL (≈ 0.118 µM)
MIC (C. difficile strains; strain HM-746): ≤0.03 µg/mL
MIC (C. difficile strains; strain HM-747): 0.06 µg/mL (≈ 0.0567 µM)
MIC (C. difficile strains; strain NR49292): 0.5 µg/mL (≈ 0.473 µM)
MIC (C. difficile strains; strain NR49294): 0.01 µg/mL (≈ 0.00945 µM)
MIC (C. difficile strains; strain NR49302): 0.03 µg/mL (≈ 0.0284 µM)
MIC (C. difficile strains; strain NR49305): 0.01 µg/mL (≈ 0.00945 µM)
MIC (C. difficile strains; strain NR49310): ≤0.01 µg/mL
MIC (C. difficile strains; strain NR49318): 0.125 µg/mL (≈ 0.118 µM)
MIC (C. difficile strains; strain NR-13427): 0.03 µg/mL (≈ 0.0284 µM)
MIC (C. difficile strains; strain NR-13428): ≤0.03 µg/mL
MIC (C. difficile strains; strain NR-13429): 0.25 µg/mL (≈ 0.236 µM)
MIC (C. difficile strains; strain NR-13430): ≤0.03 µg/mL
MIC (C. difficile strains; strain NR-13431): 0.125 µg/mL (≈ 0.118 µM)
MIC (C. difficile strains; strain NR-13433): 0.125 µg/mL (≈ 0.118 µM)
MIC (C. difficile strains; strain NR-13434): 0.06 µg/mL (≈ 0.0567 µM)
MIC (C. difficile strains; strain NR-13435): ≤0.03 µg/mL
MIC (C. difficile strains; strain NR-13436): 0.125 µg/mL (≈ 0.118 µM)
MIC (C. difficile strains; strain NR-13437): 0.25 µg/mL (≈ 0.236 µM)
MIC (C. difficile strains; strain NR-13438): 0.06 µg/mL (≈ 0.0567 µM)
MIC (C. difficile strains; strain NR-13553): ≤0.03 µg/mL
MIC (C. difficile strains; strain NR-32882): 0.06 µg/mL (≈ 0.0567 µM)
MIC (C. difficile strains; strain NR-32883): 0.125 µg/mL (≈ 0.118 µM)
MIC (C. difficile strains; strain NR-32884): 0.03 µg/mL (≈ 0.0284 µM)
MIC (C. difficile strains; strain NR-32885): 0.25 µg/mL (≈ 0.236 µM)
MIC (C. difficile strains; strain NR-32886): 0.03 µg/mL (≈ 0.0284 µM)
MIC (C. difficile strains; strain NR-32887): 0.125 µg/mL (≈ 0.118 µM)
MIC (C. difficile strains; strain NR-32888): 0.03 µg/mL (≈ 0.0284 µM)
MIC (C. difficile strains; strain NR-32889): 0.25 µg/mL (≈ 0.236 µM)
MIC (C. difficile strains; strain NR-32890): 0.06 µg/mL (≈ 0.0567 µM)
MIC (C. difficile strains; strain NR-32891): 0.03 µg/mL (≈ 0.0284 µM)
MIC (C. difficile strains; strain NR-32892): 0.03 µg/mL (≈ 0.0284 µM)
MIC (C. difficile strains; strain NR-32895): 0.03 µg/mL (≈ 0.0284 µM)
MIC (C. difficile strains; strain NR-32896): 0.03 µg/mL (≈ 0.0284 µM)
MIC (C. difficile strains; strain NR-32897): 0.03 µg/mL (≈ 0.0284 µM)
MIC (C. difficile strains; strain NR-32900): 0.03 µg/mL (≈ 0.0284 µM)
MIC (C. difficile strains; strain NR-32903): 0.03 µg/mL (≈ 0.0284 µM)
MIC (C. difficile strains; strain NR-32904): 0.03 µg/mL (≈ 0.0284 µM)
MIC (C. difficile strains; strain NR-49277): 0.06 µg/mL (≈ 0.0567 µM)
MIC (C. difficile strains; strain NR-49278): 0.25 µg/mL (≈ 0.236 µM)
MIC (C. difficile strains; strain NR-49279): 0.25 µg/mL (≈ 0.236 µM)
MIC (C. difficile strains; strain NR-49280): 0.125 µg/mL (≈ 0.118 µM)
MIC (C. difficile strains; strain NR-49281): 0.25 µg/mL (≈ 0.236 µM)
MIC (C. difficile strains; strain NR-49282): 0.06 µg/mL (≈ 0.0567 µM)
MIC (C. difficile strains; strain NR-49283): 0.03 µg/mL (≈ 0.0284 µM)
MIC (C. difficile strains; strain NR-49284): 0.06 µg/mL (≈ 0.0567 µM)
MIC (C. difficile strains; strain NR-49285): 0.06 µg/mL (≈ 0.0567 µM)
MIC (C. difficile strains; strain NR-49286): 0.25 µg/mL (≈ 0.236 µM)
MIC (C. difficile strains; strain NR-49287): 0.25 µg/mL (≈ 0.236 µM)
MIC (C. difficile strains; strain NR-49288): 0.25 µg/mL (≈ 0.236 µM)
MIC (C. difficile strains; strain NR-49289): 0.03 µg/mL (≈ 0.0284 µM)
MIC (C. difficile strains; strain NR-49290): 0.06 µg/mL (≈ 0.0567 µM)
MIC (C. difficile strains; strain NR-49291): 0.25 µg/mL (≈ 0.236 µM)
MIC (C. difficile strains; strain NR-49293): ≤0.03 µg/mL
MIC (C. difficile strains; strain NR-49295): ≤0.03 µg/mL
MIC (C. difficile strains; strain NR-49296): ≤0.03 µg/mL
MIC (C. difficile strains; strain NR-49297): 0.0125 µg/mL (≈ 0.0118 µM)
MIC (C. difficile strains; strain NR-49298): 0.125 µg/mL (≈ 0.118 µM)
MIC (C. difficile strains; strain NR-49299): 0.125 µg/mL (≈ 0.118 µM)
MIC (C. difficile strains; strain NR-49300): 0.03 µg/mL (≈ 0.0284 µM)
MIC (C. difficile strains; strain NR-49301): 0.03 µg/mL (≈ 0.0284 µM)
MIC (C. difficile strains; strain NR-49303): 0.03 µg/mL (≈ 0.0284 µM)
MIC (C. difficile strains; strain NR-49304): 0.06 µg/mL (≈ 0.0567 µM)
MIC (C. difficile strains; strain NR-49306): 0.03 µg/mL (≈ 0.0284 µM)
MIC (C. difficile strains; strain NR-49307): 0.03 µg/mL (≈ 0.0284 µM)
MIC (C. difficile strains; strain NR-49308): 0.125 µg/mL (≈ 0.118 µM)
MIC (C. difficile strains; strain NR-49309): 0.03 µg/mL (≈ 0.0284 µM)
MIC (C. difficile strains; strain NR-49311): 0.03 µg/mL (≈ 0.0284 µM)
MIC (C. difficile strains; strain NR-49312): 0.125 µg/mL (≈ 0.118 µM)
MIC (C. difficile strains; strain NR-49313): 0.03 µg/mL (≈ 0.0284 µM)
MIC (C. difficile strains; strain NR-49314): 0.25 µg/mL (≈ 0.236 µM)
MIC (C. difficile strains; strain NR-49315): 0.06 µg/mL (≈ 0.0567 µM)
MIC (C. difficile strains; strain NR-49316): 0.125 µg/mL (≈ 0.118 µM)
MIC (C. difficile strains; strain NR-49317): 0.06 µg/mL (≈ 0.0567 µM)
MIC (C. difficile strains; strain NR-49319): 0.125 µg/mL (≈ 0.118 µM)
MIC (C. difficile strains; strain NR-49320): 0.125 µg/mL (≈ 0.118 µM)
MIC (C. difficile strains; strain NR-49321): 0.125 µg/mL (≈ 0.118 µM)
MIC (C. difficile strains; strain NR-49323): ≤0.03 µg/mL
MIC (C. difficile strains; strain NR-49324): 0.06 µg/mL (≈ 0.0567 µM)
MIC (C. difficile strains; strain NR-49325): 0.03 µg/mL (≈ 0.0284 µM)
MIC (C. difficile strains; strain NR-49326): 0.03 µg/mL (≈ 0.0284 µM)
MIC (C. difficile strains; strain NR-49327): 0.03 µg/mL (≈ 0.0284 µM)
MIC (C. difficile strains; strain NR-49328): 0.03 µg/mL (≈ 0.0284 µM)
MIC (C. difficile strains; strain NR-49329): 0.03 µg/mL (≈ 0.0284 µM)
MIC (C. difficile strains; strain RMA23691): 4 µg/mL (≈ 3.78 µM)
MIC (C. difficile strains; strain RMA23828): >8 µg/mL
MIC (C. difficile strains; strain RMA24531): 0.01 µg/mL (≈ 0.00945 µM)
MIC (C. difficile strains; strain RMA24923): 0.06 µg/mL (≈ 0.0567 µM)
MIC (C. difficile strains; strain RMA26675): 4 µg/mL (≈ 3.78 µM)
MIC (C. difficile strains; strain RMA27081): >8 µg/mL
MIC (C. difficile strains; strain RMA27173): 0.01 µg/mL (≈ 0.00945 µM)
MIC [2]: >32 µg/mL
MIC [3]: <0.01 µg/mL
MIC [4]: <0.06 µg/mL
MIC (Veillonella sp. HM-49): 8 µg/mL (≈ 7.56 µM)
MIC (Eubacterium sp. HM-178): 16 µg/mL (≈ 15.1 µM)
